This experiment relates to 6-OHDA-lesioned rats. Kind of experiment: Assessment of activity in 6-OHDA-lesioned rats (induction of rotational activity). The class given is in vivo, rat. The conditions noted are these: p.o., 63.4 μmole/kg, after benserazide 10 mg/kg; rotations over 4 hours; male Wistar rats.

Consider `CC(C)CC(=O)Oc1ccc(C[C@H](N)C(N)=O)cc1OC(=O)CC(C)C.Cl` [Example 5, (S)-2-[3,4-Bis-(3-methylbutyryloxy)-phenyl]-1-carbamoylethylammonium chloride], for which the “Duration of activity as % of that of L-Dopa” value amounted to 71%; the “Peak activity as % of that of L-Dopa” value came to 118%; the “Total activity (AUC activity, area under the locomotor-activity/time curve) as % of that of L-Dopa” value was found to be 89%.
